How the values were obtained:
rat orexin 1 receptor = rat orexin 1 receptor (Rattus norvegicus, UniProt P56718); assay: Rat orexin 1 receptor radioligand binding (competitive); details: HEK293 cells stably expressing rat orexin 1 receptor; 4 nM radioligand; averages of 2-20 runs; read-out: rOX1 Ki
In short: (§1)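 Competition binding used HEK293 cells expressing rat OX1 or CHO cells expressing human OX1, with 4 nM final [3H]-labelled thiazolyl-oxadiazolyl-pyrrolidinyl methanone radioligand in PBS. Compounds were tested at 7 concentrations (0.1 nM–10 μM) for 60 min at room temperature, then filtered; 10 μM almorexant defined nonspecific binding. Ki was derived from the one-site IC50 and the radioligand Kd.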

human orexin 1 receptor = human orexin 1 receptor (Homo sapiens (Human), UniProt O43613); assay: Human orexin 1 receptor radioligand binding (competitive); details: CHO cells stably expressing human orexin 1 receptor; 4 nM radioligand; averages of 2-20 runs; read-out: hOX1 Ki
In short: as §1

human orexin 2 receptor = human orexin 2 receptor (Homo sapiens (Human), UniProt O43614); assay: Human orexin 2 receptor radioligand binding ([3H]-EMPA competition); details: HEK293 stably expressing human orexin 2 receptor; 2 nM [3H]-EMPA; averages of 2-20 runs; read-out: hOX2 Ki
In short: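 Membranes-free whole HEK293 cells stably expressing human OX2 receptor incubated with [3H]-EMPA and compound (7 concentrations, 0.1 nM–10 μM, ≤0.1% DMSO) for 60 min at room temperature; nonspecific binding with 10 μM almorexant. Filtration and scintillation counting; one-site IC50 converted to Ki using predetermined Kd, triplicates averaged over 2-20 runs.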

Sequence of human orexin 1 receptor (O43613 whole entry): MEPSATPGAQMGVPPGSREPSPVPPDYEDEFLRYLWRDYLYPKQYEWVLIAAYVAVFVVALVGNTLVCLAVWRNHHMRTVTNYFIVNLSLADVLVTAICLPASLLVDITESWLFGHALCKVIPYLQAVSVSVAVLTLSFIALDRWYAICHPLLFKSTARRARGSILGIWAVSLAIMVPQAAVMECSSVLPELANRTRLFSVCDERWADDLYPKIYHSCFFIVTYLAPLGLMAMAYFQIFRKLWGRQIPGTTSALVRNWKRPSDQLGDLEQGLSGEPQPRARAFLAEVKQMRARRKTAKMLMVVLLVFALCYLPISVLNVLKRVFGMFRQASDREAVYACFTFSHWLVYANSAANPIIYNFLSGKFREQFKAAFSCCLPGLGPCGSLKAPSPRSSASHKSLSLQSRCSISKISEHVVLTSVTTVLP
Sequence of human orexin 2 receptor (O43614 whole entry): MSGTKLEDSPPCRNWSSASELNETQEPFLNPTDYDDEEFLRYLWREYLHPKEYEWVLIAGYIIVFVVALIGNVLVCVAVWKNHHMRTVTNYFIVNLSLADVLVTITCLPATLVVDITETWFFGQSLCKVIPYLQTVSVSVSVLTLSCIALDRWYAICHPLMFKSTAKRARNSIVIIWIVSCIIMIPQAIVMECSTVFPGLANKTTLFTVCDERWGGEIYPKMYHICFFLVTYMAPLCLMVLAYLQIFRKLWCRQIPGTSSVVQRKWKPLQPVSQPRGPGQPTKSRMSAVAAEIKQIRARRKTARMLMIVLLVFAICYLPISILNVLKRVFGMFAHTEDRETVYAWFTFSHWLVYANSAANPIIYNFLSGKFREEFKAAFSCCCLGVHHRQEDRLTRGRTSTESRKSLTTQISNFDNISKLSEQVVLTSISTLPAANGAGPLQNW

SMILES | Ki (rat orexin 1 receptor) | Ki (human orexin 1 receptor) | Ki (human orexin 2 receptor)
C[C@@H]1[C@@H]2CC[C@@H]([C@@H](Oc3ccc(C(F)(F)F)cn3)C2)N1C(=O)c1cccc(F)c1-c1ncccn1 [Example 162, (3-fluoro-2-pyrimidin-2-yl-phenyl)-[(1R,2R,4S,5S)-2-methyl-5-[[5-(trifluoromethyl)-2-pyridyl]oxy]-3-azabicyclo[2.2.2]octan-3-yl]methanone] | 236 nM | 106 nM | > 10000 nM
C[C@@H]1[C@H]2C[C@@H](Oc3ccc(C(F)(F)F)cn3)[C@H](C2)N1C(=O)c1ccccc1-n1ncc(CCCF)n1 [Example 168, [2-[4-(3-fluoropropyl)triazol-2-yl]phenyl]-[(1R,2R,4S,5R)-2-methyl-5-[[5-(trifluoromethyl)-2-pyridyl]oxy]-3-azabicyclo[2.2.1]heptan-3-yl]methanone] | 14 nM | 20 nM | 1380 nM
C[C@@H]1[C@H]2C[C@@H](Oc3ccc(C(F)(F)F)cn3)[C@H](C2)N1C(=O)c1ccccc1-c1ccc(F)nc1 [Example 171, [2-(6-fluoro-3-pyridyl)phenyl]-[(1R,2R,4S,5R)-2-methyl-5-[[5-(trifluoromethyl)-2-pyridyl]oxy]-3-azabicyclo[2.2.1]heptan-3-yl]methanone] | 23 nM | 17 nM | 1600 nM
C[C@@H]1[C@H]2C[C@@H](Oc3ccc(C(F)(F)F)cn3)[C@H](C2)N1C(=O)c1ccccc1-c1ccnc(F)c1 [Example 172, [2-(2-fluoro-4-pyridyl)phenyl]-[(1R,2R,4S,5R)-2-methyl-5-[[5-(trifluoromethyl)-2-pyridyl]oxy]-3-azabicyclo[2.2.1]heptan-3-yl]methanone] | 66 nM | 67 nM | > 10000 nM
C[C@@H]1[C@H]2C[C@@H](Oc3ccc(C(F)(F)F)cn3)[C@H](C2)N1C(=O)c1ccccc1-c1cccc([N+](=O)[O-])n1 [Example 174, [(1R,2R,4S,5R)-2-methyl-5-[[5-(trifluoromethyl)-2-pyridyl]oxy]-3-azabicyclo[2.2.1]heptan-3-yl]-[2-(6-nitro-2-pyridyl)phenyl]methanone] | 8 nM | 9 nM | 3940 nM

More lines, now with the values ahead:

Ki (rat orexin 1 receptor) | Ki (human orexin 1 receptor) | Ki (human orexin 2 receptor) | SMILES
13 nM | 15 nM | 837 nM | C[C@@H]1[C@H]2C[C@@H](Oc3ccc(C(F)(F)F)cn3)[C@H](C2)N1C(=O)c1ccccc1-c1cccc(Br)n1 [Example 175, [2-(6-bromo-2-pyridyl)phenyl]-[(1R,2R,4S,5R)-2-methyl-5-[[5-(trifluoromethyl)-2-pyridyl]oxy]-3-azabicyclo[2.2.1]heptan-3-yl]methanone]
33 nM | 35 nM | 8100 nM | Cc1ccc(-n2nccn2)c(C(=O)N2[C@H](CO)[C@@H]3CC[C@H]2[C@H](Oc2ccc(C(F)(F)F)cn2)C3)n1 [Example 176, [(1R,2S,4S,5R)-2-(hydroxymethyl)-5-[[5-(trifluoromethyl)-2-pyridyl]oxy]-3-azabicyclo[2.2.2]octan-3-yl]-[6-methyl-3-(triazol-2-yl)-2-pyridyl]methanone]
8 nM | 8 nM | 4700 nM | Cc1ccc(C(=O)N2[C@H](C)[C@H]3C[C@@H](Oc4ccc(Cl)cn4)[C@@H]2C3)c(-n2nccn2)n1 [Example 193, [(1R,2R,4S,5R)-5-[(5-chloro-2-pyridyl)oxy]-2-methyl-3-azabicyclo[2.2.1]heptan-3-yl]-[6-methyl-2-(triazol-2-yl)-3-pyridyl]methanone]
5 nM | 5 nM | 2900 nM | Cc1cnc(-n2nccn2)c(C(=O)N2[C@H](C)[C@H]3C[C@@H](Oc4ccc(Cl)cn4)[C@@H]2C3)c1 [Example 194, [(1R,2R,4S,5R)-5-[(5-chloro-2-pyridyl)oxy]-2-methyl-3-azabicyclo[2.2.1]heptan-3-yl]-[5-methyl-2-(triazol-2-yl)-3-pyridyl]methanone]
4 nM | 3 nM | 481 nM | [2H]C1([2H])[C@H]2C[C@@H]([C@@H]1Oc1ccc(Cl)cn1)N(C(=O)c1cccc(F)c1-n1nccn1)[C@@H]2C [Example 197, [(1R,3R,4S,6R)-3-[(5-chloro-2-pyridyl)oxy]-2,2-dideuterio-6-methyl-5-azabicyclo[2.2.1]heptan-5-yl]-[3-fluoro-2-(triazol-2-yl)phenyl]methanone]
5 nM | 5 nM | 556 nM | [2H]C1([2H])[C@H]2C[C@@H]([C@@H]1Oc1ccc(C(F)(F)F)cn1)N(C(=O)c1cccc(F)c1-n1nccn1)[C@@H]2C [Example 199, [(1R,3R,4S,6R)-2,2-dideuterio-6-methyl-3-[[5-(trifluoromethyl)-2-pyridyl]oxy]-5-azabicyclo[2.2.1]heptan-5-yl]-[3-fluoro-2-(triazol-2-yl)phenyl]methanone]

From US9611262B2, “Substituted 2-azabicycles and their use as orexin receptor modulators” (JANSSEN PHARMACEUTICA NV, priority 2014, dated 2017)
